Key:
[1] = Gelation time in polyurethane synthesis model reaction with tin catalyst; conditions: for Catalyst effect 65°C: gel time with no catalyst (2580 seconds) divided by gel time with 0.5 mol % of the catalyst; for Catalyst effect 90C: gel time with no catalyst (750 seconds) divided by gel time with 0.5 mol % of the catalyst; for Latency: latent if gelation did not occur at room temperature for two hours at a catalyst concentration of 1 mol%; for Gelation time In argon t, s (65ºC) / Gelation time On air t, s (65ºC): 65 °C; for Gelation time In argon t, s (90ºC) / Gelation time On air t, s (90ºC): 90 °C
Procedure: A method for using the above-mentioned tin(IV) complexes to produce polyurethane is described in the following. The method consists of adding a solution of the above-mentioned catalyst in an organic solvent (THF) to a two-component mixture at a given temperature. The method is explained by examples of its implementation: Specifically, to a vigorously stirred solution of 4.5 ml (5.1 g, 8.4 mmol) polyethyleneglycol-600 1.35 ml (1.40 g, 8.3 mmol), hexamethylene diisocyanate was added (temperature control was performed by thermostating the reaction mixture at room temperature, 65°C, 90°C before adding the catalyst), and then the solution of the catalyst to be tested in 0.25 ml in THF was added as fast as possible. The flask with the reactants then was put into an oil bath at room temperature, 65°C or 90°C (depending on the experiment), and then time count was started. The end of reaction was defined as the stop of the magnetic stirrer. The time from start to stop is taken as the gelation time. Experiments conducted in air and in an inert gas atmosphere at different temperatures were compared.
The molar concentration of the catalyst is given with respect to the molar amount of the polyisocyanate. Table 1: Gelation time with selected tin catalysts.

[2] = Solubility of catalyst in organic solvents; assay type: physicochemical
[3] = Stability in ambient / moist air (visible change of powder on dry surface); assay type: physicochemical; conditions: for Air stability: powder poured onto a dry surface, left in ambient air
From the text: (§1) The alkoxy-based tin complexes (DMAE)2Sn(OtBu)2 and (DMAEIDE)Sn(OtBu)2 were obtained using procedures similar to the synthesis of the phenoxy-complexes. These complexes are stable under dry conditions.
(§2) Of special stability are complexes based on tetradentate Salen and Salan type ligands such as: […]

[4] = Stability on dissolution in wet organic solvent; assay type: physicochemical; conditions: wet / moist organic solvent
From the text: as §1, §2

Row | SMILES | Catalyst effect 65°C [1] | Catalyst effect 90C [1] | Latency [1] | Solubility Alkanes [2] | Solubility CH2Cl2/CHCl3 [2] | Solubility PhMe [2] | Solubility THF [2] | Air stability [3] | gel time compared with no catalyst ([1]; 0.1 mol% concentration, under air) | Gelation time In argon t, s (65ºC) ([1]; c 0.1 % mol.) | Gelation time In argon t, s (90ºC) ([1]; c 0.1 % mol.) | Gelation time On air t, s (65ºC) ([1]; c 0.1 % mol.) | Gelation time On air t, s (90ºC) ([1]; c 0.1 % mol.) | Gelation time In argon t, s (65ºC) ([1]; c 1 % mol.) | Gelation time In argon t, s (90ºC) ([1]; c 1 % mol.) | Gelation time On air t, s (65ºC) ([1]; c 1 % mol.) | Gelation time On air t, s (90ºC) ([1]; c 1 % mol.) | Decomposition on dissolution in wet organic solvent [4] | Hygroscopicity [3] | Visible change of powder in moist air ([3]; powder poured on a dry surface in moist air)
1 | CC(C)(C)[O][Sn]1([O]C(C)(C)C)[O]c2c(cc(C(C)(C)C)cc2C(C)(C)C)CN2CCN(CC2)Cc2cc(C(C)(C)C)cc(C(C)(C)C)c2[O]1 | 5.7 | 2.8 | yes | +- (less than 0.01 mol/L) | +++ (higher than 1.0 mol/L) | +++ (higher than 1.0 mol/L) | ++ (between 0.1 and 1.0) | excellent (Excellent stability was attributed to compounds for which no visible change was found within 24 hours) | – | – | – | – | – | – | – | – | – | – | – | –
2 | CN1Cc2cc(C(C)(C)C)cc(C(C)(C)C)c2[O][Sn]2([O]c3c(cc(C(C)(C)C)cc3C(C)(C)C)C1)[O]c1c(cc(C(C)(C)C)cc1C(C)(C)C)CN(C)Cc1cc(C(C)(C)C)cc(C(C)(C)C)c1[O]2 | 2.4 | 3.8 | yes | ++ (between 0.1 and 1.0) | +++ (higher than 1.0 mol/L) | +++ (higher than 1.0 mol/L) | +++ (higher than 1.0 mol/L) | good (If there was no visible change within an hour, such as discoloration or melting into droplets due to hygroscopicity, then the stability of the compound was considered good) | – | – | – | – | – | – | – | – | – | – | – | –
3 | C1=NCC[O][Sn]2([O]CCN=Cc3ccccc3[O]2)[O]c2ccccc21 (stereo not drawn) | 12.3 | 6.3 | yes | +- (less than 0.01 mol/L) | +- (less than 0.01 mol/L) | + (between 0.01 and 0.1 mol/L) | + (between 0.01 and 0.1 mol/L) | good (If there was no visible change within an hour, such as discoloration or melting into droplets due to hygroscopicity, then the stability of the compound was considered good) | – | – | – | – | – | – | – | – | – | – | – | –
4 | CN(C)CC[O][Sn]([O]CCN(C)C)([O]C(C)(C)C)[O]C(C)(C)C [(DMAE)2Sn(OtBu)2, reference compound] | – | – | – | – | – | – | – | – | the same as for no catalyst | 410 s | 185 s | 2580 s | 750 s | 230 s | 150 s | 540 s | 280 s | instantly leads to the decomposition | rather hygroscopic | change their appearance within half an hour

Reference: EP4534577A1, “NON-TOXIC LATENT POLYMERIZATION CATALYSTS FOR POLYURETHANES BASED ON TIN (IV) CHELATE COMPLEXES” (Tech Synt Ltd, priority 2023, dated 2025)
